Measurements published in patent publication US20250144067A1, “PERSONALIZED STARVATION THERAPY FOR CANCER” (Faeth Therapeutics, Inc., priority 2021, published 2025).
Counter-ions that a name gives are not always drawn.

Legend:
[1] = test system: SW480 cells; assay: Drug validation, four media conditions; format: cell-based, human
Protocol: (§1) A series of experiments were designed to assess the effect of cholesterol depletion and statin treatment on the anti-cancer effect of drugs identified in the FDA drug screens. Cancer cells were grown in media containing cholesterol and cholesterol-free media in the presence or absence of simvastatin. The effect of the drug identified in the FDA drug screens on cancer cell growth was measured.
(§2) […]. Medium 1 was ‘complete medium’ containing all essential nutrients, including cholesterol. Medium 2 was cholesterol-free medium. Medium 3 was cholesterol-free medium supplemented with simvastatin 40 nM. Medium 4 was ‘complete medium’ containing all essential nutrients, including cholesterol, supplemented with simvastatin at the IC30 concentration for each cell line.
(§3) On Day 5, cell growth was measured by absorbance or fluorescence. For absorbance growth measurements, spent media was discarded, and wells were stained with a crystal violet staining solution, washed, and dried. 100 μL of 10% acetic acid was added to each well to release the crystal violet taken up by the cells. Plates were read using a Biotek Powerwave plate reader to determine the absorbance of the crystal violet released as an indicator of cell growth at a wavelength of 595 nm. For fluorescence growth measurements, 100 μL of a resazurin solution was added to each well and the plate incubated at 37° C. for four hours. Plates were read using a Biotek Powerwave plate reader to determine the fluorescence of reosurfin as an indicator of cell growth at a wavelength of 590 nm.
(§4) Growth curves showing absorbance of crystal violet at 595 nm or fluorescene of reosurfin at 590 nm were plotted from test wells against the logarithmic concentration of the validation drug. FIG. 9A-9C show growth of cancer cell lines in the four media conditions subjected to increasing doses of neticonazole. FIG. 10A-10D show growth of cancer cell lines in the four media conditions subjected to increasing doses of cepharanthine. FIG. 11A-11B show growth of cancer cell lines in the four media conditions subjected to increasing doses of alverine citrate. FIG. 12A-12B show growth of cancer cell lines in the four media conditions subjected to increasing doses of berbamine. FIG. 13A-13C show growth of cancer cell lines in the four media conditions subjected to increasing doses of pitolisant. FIG. 14A-14G show growth of cancer cell lines in the four media conditions subjected to increasing doses of avapritinib. FIG. 15A-15D show growth of cancer cell lines in the four media conditions subjected to increasing doses of toremifene. FIG. 16A-16C show growth of cancer cell lines in the four media conditions subjected to increasing doses of isavuconazole.

[2] = test system: H292 cells; assay: Drug validation, four media conditions; format: cell-based, human; conditions: cholesterol-free medium+simvastatin compared to the other media conditions
Protocol: as §1, §2, §3, §4

[3] = test system: SW480 colorectal tumour; assay: Anti-tumour activity with low cholesterol diet in SW480 tumour bearing mice; format: in vivo, M-NSG mice; conditions: Low Chol Diet + atorvastatin 15 mg/kg daily oral gavage vs Low Chol Diet + vehicle
Source text: (§5) A series of in vivo experiments were designed to assess the effect of cholesterol depletion on cancer cell growth. The added role of statin treatment and additional therapeutic agents was studied by dosing mice and assessing tumor growth over a defined time period.
Immunodeficient M-NSG (NOD-Prkdc^scid Il2rgem1Smoc) mice were subcutaneously injected with human colorectal cancer SW480 cells and matrigel to initiate tumor development and randomly assigned into one of four experimental groups (n=6 per group): normal cholesterol diet “Normal Chol Diet” containing 0.2% dietary cholesterol and vehicle, low cholesterol diet “Low Chol Diet” containing less than 0.05% dietary cholesterol and vehicle, Low Chol Diet treated with atorvastatin at 15 mg/kg, or Low Chol Diet treated with toremifene at 2 mg/kg. Once the tumor volume reached ˜150 mm^3, experimental diets were commenced. Atorvastatin, vehicle, or toremifene treatment by oral gavage was initiated four days after the diet change and continued daily until the tumor volume exceeded 2000 mm^3 or the time end-point of three weeks after treatment initiation was reached. Throughout the course of the study, tumor volume was measured twice per week.

[4] = test system: NCI-H292 lung cancer cells; assay: FDA drug screening, complete media vs cholesterol-free media without statin (TABLE 1); format: cell-based, human
[5] = test system: NCI-H292 lung cancer cells; assay: FDA drug screening, complete media vs cholesterol-free media with simvastatin (TABLE 2); format: cell-based, human; conditions: for Cholesterol-free media + simvastatin (0.04 μM) / Complete Media: NCI-H292 cells; for Cholesterol-free media + simvastatin (0.04 μM): cholesterol-free media with simvastatin 0.04 μM
[6] = test system: NCI-H292 mucoepidermoid lung cancer tumour; assay: Anti-tumour activity with low cholesterol diet in NCI-H292 tumour bearing mice; format: in vivo, BALB/c nude mice; conditions: Low Chol Diet + atorvastatin 30 mg/kg daily oral gavage vs Low Chol Diet + vehicle
Source text: as §5
Immunodeficient BALB/c nude mice were subcutaneously injected with human mucoepidermoid lung cancer NCI-H292 cells to initiate tumor development and randomly assigned into one of three experimental groups (n=6 per group): normal cholesterol diet “Normal Chol Diet” containing 0.2% dietary cholesterol without atorvastatin; low cholesterol diet “Low Chol Diet” containing less than 0.05% dietary cholesterol without atorvastatin; or Low Chol Diet treated with atorvastatin at 30 mg/kg by oral gavage. Once the tumor volume reached ˜150 mm^3, experimental diets were commenced. Atorvastatin or vehicle treatment was initiated four days after the diet change and continued daily until the tumor volume exceeded 2000 mm^3 or the time end-point of three weeks after diet commencement was reached. Throughout the course of the study, tumor volume was measured twice per week.

[7] = test system: cancer cell lines; assay: Drug validation in multiple cancer cell lines, four media conditions; format: cell-based, human; conditions: cholesterol-free media compared to complete media
Protocol: as §1
[…]. Medium 1 was ‘complete medium’ containing all essential nutrients, including cholesterol. Medium 2 was cholesterol-free medium. Medium 3 was cholesterol-free medium supplemented with simvastatin 40 nM. […]
as §3, with “and dried. […] Plates were” for “and dried. 100 μL of 10% acetic acid was added to each well to release the crystal violet taken up by the cells. Plates were”, “590 nm. […]” for “590 nm.”

[8] = test system: PSN1 cells; assay: Drug validation, four media conditions; format: cell-based, human; conditions: for anti-proliferative effect (dose-response curve shift): cholesterol-free medium+simvastatin compared to the other media conditions
Protocol: as §1, §2, §3, §4

[9] = test system: PATU8901 cells; assay: Drug validation, four media conditions; format: cell-based, human; conditions: cholesterol-free media with simvastatin
Protocol: as §1, §2, §3, §4

[10] = test system: H292 cells; assay: Drug validation in H292 cells, three media conditions; format: cell-based, human; conditions: cholesterol-free medium + simvastatin 40 nM vs complete and cholesterol-free medium
Protocol: as §1
On Day 1, cells were seeded at a density of around 7500 cells/well in a Corning 96-well flat bottom culture plate in complete media containing 10% FBS.
On Day 5, spent media was discarded, and wells were stained with a crystal violet staining solution, washed and dried. 100 μL of 10% acetic acid was added to each well to release the crystal violet taken up by the cells. Plates were read using a Biotek Powerwave plate reader to determine the absorbance of the crystal violet released as an indicator of cell growth at a wavelength of 595 nm.
Growth curves showing absorbance of crystal violet at 595 nm were plotted from test wells against the logarithmic concentration of the validation drug. FIG. 7A-7C show growth of cancer cell lines in the three media conditions subjected to increasing doses of isavuconazole (FIG. 7A), pitolisant (FIG. 7B), or toremifene (FIG. 7C) from the FDA screen under validation. For each of the drugs being validated, there is a strong ‘left-shift’ in the dose response curve for cells are grown in the cholesterol-free medium+simvastatin.

[11] = test system: PC9 cells; assay: Drug validation, four media conditions; format: cell-based, human; conditions: cholesterol-free medium+simvastatin compared to the other media conditions
Protocol: as §1, §2, §3, §4

[12] = test system: HCC827 cells; assay: Drug validation, four media conditions; format: cell-based, human; conditions: cholesterol-free and cholesterol-free+simvastatin media conditions
Protocol: as §1, §2, §3, §4

[13] = Complete minus Cholesterol-free, >0 enhanced anti-cancer activity, about 0 neutral, <0 antagonist
[14] = NCI-H292 cells, cholesterol-free media without statin, FDA drug library screen
[15] = NCI-H292 cells, complete media, FDA drug library screen
[16] = FDA drug library screen, complete media
[17] = complete media minus cholesterol-free media + simvastatin, >0 enhanced anti-cancer activity, about 0 neutral, <0 antagonist
[18] = NCI-H292 cells in cholesterol-free media without statin
[19] = NCI-H292 cells in complete media
[20] = cholesterol-free and cholesterol-free+simvastatin media conditions
[21] = Complete minus Cholesterol-free, […]
[22] = FDA drug library screen (TABLE 2)
[23] = complete media, FDA drug library screen (TABLE 2)
[24] = complete media minus cholesterol-free media + simvastatin (0.04 μM), […]
[25] = complete media vs cholesterol-free media + simvastatin (0.04 μM), […]

## CCN(CCCc1ccccc1)CCCc1ccccc1 [alverine citrate]
[1]; cholesterol-free medium+simvastatin compared to the other media conditions
  anti-proliferative effect (dose-response curve shift): enhanced
[2]
  anti-proliferative effect (dose-response curve shift): enhanced

## CC(C)c1c(C(=O)Nc2ccccc2)c(-c2ccccc2)c(-c2ccc(F)cc2)n1CC[C@@H](O)C[C@@H](O)CC(=O)O [atorvastatin, reference compound]
[3]
  tumor growth suppression: enhanced
[4]; [13]
  Difference: 0.03
[4]; [14]
  Cholesterol-free: 0.8356
[4]; [15]
  Complete: 0.8623
[5]; FDA drug library screen, listed as Atorvastatin
  Cholesterol-free media + simvastatin (0.04 μM): 0.6169
[5]; FDA drug library screen, complete media, listed as Atorvastatin
  Complete Media: 0.8658
[5]; complete media minus cholesterol-free media + simvastatin, >0 enhanced anti-cancer activity, about 0 neutral, <0 antagonist, listed as Atorvastatin
  Difference: 0.25
[6]
  tumor growth suppression: enhanced the tumor growth suppression

## Cn1cc(-c2cc3c(N4CCN(c5ncc([C@@](C)(N)c6ccc(F)cc6)cn5)CC4)ncnn3c2)cn1 [avapritinib, reference compound]
[7]
  anti-proliferative effect (dose-response curve shift) with lack of cholesterol: enhanced
[8]
  anti-proliferative effect (dose-response curve shift): strong left-shift
[9]
  anti-proliferative effect (dose-response curve shift): strong left-shift
[2]
  anti-proliferative effect (dose-response curve shift): strong left-shift
[4]; NCI-H292 cells, cholesterol-free media without statin
  Cholesterol-free: 0.9337
[4]; NCI-H292 cells, complete media
  Complete: 0.6002
[4]; complete vs cholesterol-free media, greater than 0 enhanced anti-cancer activity, about 0 neutral, below 0 antagonists
  Difference: −0.33
[5]; FDA drug library screen
  Cholesterol-free media + simvastatin (0.04 μM): 0.4436
[5]; [16]
  Complete Media: 0.749
[5]; [17]
  Difference: 0.31

## C[C@@H](c1nc(-c2ccc(C#N)cc2)cs1)[C@](O)(Cn1cncn1)c1cc(F)ccc1F [isavuconazole, reference compound]
[10]
  anti-proliferative effect of the drug (dose response curve shift): strongly enhanced
[8]; cholesterol-free medium+simvastatin relative to the other three media conditions
  basal viability of treated cells: decreased basal viability
[11]
  anti-proliferative effect (dose-response curve shift): strong left-shift
[2]
  anti-proliferative effect (dose-response curve shift): strong left-shift
[4]; Complete minus Cholesterol-free, greater than 0 enhanced anti-cancer activity, about 0 neutral, below 0 antagonists
  Difference: −0.83
[4]; [18]
  Cholesterol-free: 1.746
[4]; [19]
  Complete: 0.9126
[5]; FDA drug library screen
  Cholesterol-free media + simvastatin (0.04 μM): 0.5246
[5]; [16]
  Complete Media: 0.9256
[5]; [17]
  Difference: 0.40

## CCCCCOc1ccccc1/C(=C\SC)n1ccnc1 [neticonazole, reference compound]
[8]
  anti-proliferative effect (dose-response curve shift): strongly enhanced
[11]
  anti-proliferative effect (dose-response curve shift): strongly enhanced
[2]
  anti-proliferative effect (dose-response curve shift): strongly enhanced
[4]; Complete minus Cholesterol-free, greater than 0 enhanced anti-cancer activity, about 0 neutral, below 0 antagonist
  Difference: −0.16
[4]; NCI-H292 cells, FDA drug library screen, cholesterol-free media without statin
  Cholesterol-free: 0.9493
[4]; NCI-H292 cells, FDA drug library screen, complete media
  Complete: 0.7904
[5]; FDA drug library screen, complete media, listed as Neticonazole
  Complete Media: 1.262
[5]; complete media minus cholesterol-free media + simvastatin, >0 enhanced anti-cancer activity, about 0 neutral, <0 antagonist, listed as Neticonazole
  Difference: 0.90

## Clc1ccc(CCCOCCCN2CCCCC2)cc1 [pitolisant]
[10]
  anti-proliferative effect of the drug (dose response curve shift): strongly enhanced
[8]; [20]
  activity (dose-response curve shift) with lack of cholesterol: enhanced
[1]; [20]
  activity (dose-response curve shift) with lack of cholesterol: enhanced
[12]
  activity (dose-response curve shift) with lack of cholesterol: enhanced

## Varenicline (Tartrate)
[4]; [21]
  Difference: −0.52
[4]; [18]
  Cholesterol-free: 1.334
[4]; [19]
  Complete: 0.8157
[5]; [22]
  Cholesterol-free media + simvastatin (0.04 μM): 1.729
[5]; [23]
  Complete Media: 1.705
[5]; [24]
  Difference: −0.02

## Verteporfin
[4]; [13]
  Difference: −0.04
[4]; [14]
  Cholesterol-free: 0.26
[4]; [15]
  Complete: 0.2188
[5]; FDA drug library screen
  Cholesterol-free media + simvastatin (0.04 μM): 0.616
[5]; [16]
  Complete Media: 0.9298
[5]; [17]
  Difference: 0.31

## Vinblastine (sulfate)
[4]; [21]
  Difference: 0.04
[4]; [14]
  Cholesterol-free: 0.05138
[4]; [15]
  Complete: 0.09114
[5]; FDA drug library screen
  Cholesterol-free media + simvastatin (0.04 μM): 0.2181
[5]; [16]
  Complete Media: 0.1119
[5]; [25]
  Difference: −0.11

## Vincristine (sulfate)
[4]; [21]
  Difference: 0.02
[4]; [14]
  Cholesterol-free: 0.04497
[4]; [15]
  Complete: 0.06722
[5]; [22]
  Cholesterol-free media + simvastatin (0.04 μM): 0.1488
[5]; [23]
  Complete Media: 0.1119
[5]; [24]
  Difference: −0.04

## Vitamin B12
[4]; [21]
  Difference: −0.19
[4]; NCI-H292 cells, complete media
  Complete: 0.9199
[5]; […]
  Cholesterol-free media + simvastatin (0.04 μM): 1.198
[5]; complete media, […]
  Complete Media: 1.289
[5]; complete media minus cholesterol-free media + simvastatin, […]
  Difference: 0.09

## Vonoprazan (Fumarate)
[4]; [14]
  Cholesterol-free: 1.164
[4]; [15]
  Complete: 1.405
[4]; complete vs cholesterol-free media, […]
  Difference: 0.24
[5]; FDA library drug in complete media
  Complete Media: 0.7838
[5]; [25]
  Difference: −0.27
